pIC50: −log10 of the molar value.
Key:
MTT cytotoxicity study = assay type: cell-based, C57bl/6j mice; details: male, C57bl/6j, mouse; peritoneal macrophages, 24 h incubation
Experimental: (§1) Peritoneal macrophages (PM) were isolated from the peritoneal exudate of 30 male C57bl/6j mice. To accumulate PM, 1 mL of 3% peptone solution was injected intraperitoneally. After 3 days, the mice were euthanized by cervical dislocation. Cells of peritoneal exudate were obtained by aseptic washing of the abdominal cavity with 5 mL of sterile Hanks’s solution (+4–6 °C) without calcium and magnesium ions. The total number and viability of cells were assessed in a Goryaev counting chamber (Russia) with a 0.4% trypan blue staining (Sigma-Aldrich, St. Louis, MO, USA). The cell concentration was adjusted to 1.0 × 10^6 cells/mL in DMEM (Gibco, Waltham, MA, USA) supplemented with 2 mM L-glutamine (Gibco), 10% heat-inactivated fetal bovine serum (BioClot, Bavaria, Germany), 100 U/mL penicillin, and […] streptomycin (Gibco) and plated 200 µL/well in 96-well transparent plates (SPL Life Sciences Co., Ltd., Pocheon-si, Republic of Korea). After 2 h at 37 °C in a humidified atmosphere with 5% CO2, the wells were washed to remove non-adherent cells. After 24 h of incubation, 20 µL of the supernatants were substituted with 20 µL of solutions of test compounds, followed by E. coli O127:B8 LPS (100 ng/mL final concentration) after 30 min. The experiments were run in 3 independent replicates.
(§2) The activity of lactate dehydrogenase (LDH) in a cell culture medium served as a marker of membrane permeability and cell death. Aliquots of supernatants were taken after 24 h of inoculation with test compounds, mixed with 250 µL of […] NADH solution in 54 mM phosphate-buffered saline (pH 7.5). Then, 25 µL of a 6.48 mM pyruvate solution was added to the mixture. The optical density was followed at a wavelength of 340 nm for 20 min. The MTT test was performed 24 h after incubations of cells with tested compounds. Briefly, 20 µL of MTT solution was added to each well and incubated at 37 °C in a humidified atmosphere containing 5% CO2 for 4 h. The culture medium was removed, the cells were lysed, and formazan crystals were dissolved in 150 µL DMSO. The plates were shaken at room temperature for 10 min, and the optical density was measured in a microplate reader Infinite M200 PRO (Tecan, Grödig, Austria) at a wavelength of 565 nm.

[1] = test system: NO synthesis in LPS-stimulated primary murine peritoneal macrophages; assay: Inhibition of NO synthesis in LPS-stimulated macrophages (Griess); assay type: cell-based, C57bl/6j mice; details: Mus musculus, Peritoneal macrophage; LPS-stimulated (100 ng/mL E. coli LPS) peritoneal macrophages, supernatants after 22 h; n.a. = not active
Experimental: as §1
The accumulation of the nitrite anion (a stable end product of NO decomposition) in supernatants was determined using a standard Griess reagent. Briefly, 50 µL of supernatants were collected 22 h after incubation of PM, and the test and control compounds were mixed with 50 µL of 1% sulfonamide in 2.5% H3PO4 and 50 µL of 0.1% N-(1-naphthyl) ethylenediamine in 2.5% H3PO4. After incubation at 23 °C for 10 min in an orbital shaker, the optical density was determined at a wavelength of 550 nm with a microplate reader Infinite M200 PRO (Tecan, Grödig, Austria).

[2] = test system: IL-6 release in LPS-stimulated primary murine peritoneal macrophages; assay: Inhibition of IL-6 release in LPS-stimulated macrophages (ELISA); assay type: cell-based, C57bl/6j mice; details: Mus musculus, Peritoneal macrophage; LPS-stimulated (100 ng/mL E. coli LPS) peritoneal macrophages; n.a. = not active
Experimental: as §1
(§3) The cell supernatant was collected and centrifuged at 1000× g for 20 min in a 2–16 PK centrifuge (Sigma, Osterode am Harz, Germany). The concentrations of IL-6 and TNF-alpha were determined by ELISA using commercial kits (Cloud-clone, Houston, TX, USA) with a microplate reader Infinite M200 PRO (Tecan, Grödig, Austria).

peritoneal macrophages = assay: MTT cytotoxicity study; assay type: cell-based, C57bl/6j mice
Experimental: as §1, §2

[3] = test system: phagocytic activity of C57bl/6j peritoneal macrophages; assay: Phagocytosis assay (yeast); assay type: cell-based, C57bl/6j mice; details: 72 h of incubation
Experimental: Peritoneal macrophages of C57bl/6j mice were cultured in a 24-well plate at a volume of 500 µL/well (1 × 10^5 cells/mL) for 24 h. Test compounds or DMSO were added to wells in triplicate followed by 50 µL of 1% yeast suspension, and the plates were incubated for 40 min. After 24 or 72 h, the medium was removed. The cells were fixed with May–Grunwald methanol dye and stained with Azur–Eosin in Romanovsky’s modification for 45 min at room temperature, washed, air-dried, and analyzed using a microscope Mikmed-6 (Russia), equipped with a digital camera. The study was performed in three technical replicates and two series; 100 macrophages were processed in each sample to count the captured yeast cells. Macrophage spreading was assessed as a number of pseudopodia.

[4] = test system: LPS-induced acute lung injury in C57BL/6J mice; assay: LPS-induced acute lung injury: biochemical markers of inflammation (IL-6, lung permeability index); assay type: in vivo; details: 6e 30 mg/kg i.p., 24 h after LPS
Experimental: as §3
(§4) The randomization of C57BL/6J mice was performed by body weight and motor activity in an open field test. […] The control animals received an equal volume of the vehicle. After 1 h, the mice were anesthetized with isoflurane inhalation until their breathing rate was decreased. The mice were suspended by the front incisors on an inclined surgical table, the tongue was pulled out with narrow curved tweezers, and 1 mg/mL of E. coli O127:B8 LPS (Sigma-Aldrich, St. Louis, MO, USA) in 1 mL/kg sterile saline was instilled into the back of the oropharynx. Intact control animals received an equal volume of sterile saline similarly.
(§5) The mice were anesthetized with 500 mg/kg chloral hydrate (Sigma-Aldrich, St. Louis, MO, USA) intraperitoneally 24 h after LPS administration. Blood was taken by intracardiac puncture in test tubes with heparin. The blood samples were centrifuged at 1000× g and 4 °C for 15 min on a 2–16 PK centrifuge (Sigma, Germany), and plasma was separated and stored at −80 °C until the assay. Thoracotomy was performed, the ligature was applied to the left bronchus and the trachea was cannulated with a 20 G needle. The right lung was washed twice with 0.7 mL of warm sterile saline. After combining aliquots, the bronchoalveolar lavage (BAL) was centrifuged at 800× g and 4 °C for 10 min. The supernatant was separated and stored at −80 °C until the assay. The residual cell pellet was resuspended in 50 µL of PBS for further study. The left lung was washed in saline and placed in 10% buffered formalin for morphological evaluation.
The concentration of total protein in BAL supernatants was determined spectrophotometrically with the pyrogallol red method, and the protein in the blood plasma was determined with the biuret method using commercial kits (Vital, Saint Petersburg, Russia) and bovine serum albumin as the standard. The lung permeability index was calculated as the protein concentration in the BAL to plasma ratio.

[5] = test system: LPS-induced acute lung injury in C57BL/6J mice; assay: LPS-induced acute lung injury: histological study; assay type: in vivo; details: 24 h after LPS; for Mean Injury Score (semi-quantitative morphological score of lung tissue damage): score 0-3, dexamethasone 5 mg/kg, 6e 30 mg/kg i.p. 1 h before oropharyngeal LPS
Experimental: as §4, §5
The sections were examined under a light microscope (Zeiss, Germany) by a double-blind method.

[6] = test system: LPS-induced acute lung injury in C57BL/6J mice; assay: LPS-induced acute lung injury: leukocyte markers in blood, BAL and spleen; assay type: in vivo; details: dexamethasone 5 mg/kg, 6e 30 mg/kg i.p.; 24 h after LPS
Experimental: as §4, §5
The total number of leukocytes in heparinized blood was determined after staining with methylene blue in Goryaev’s counting chamber at ×100 magnification. Smears of blood and BAL cell pellets were air-dried, fixed according to May–Grunwald for 3 min, and stained according to Romanowsky–Giemsa. After 30 min, the slides were washed, air-dried, and examined with an immersion objective (×1000 total magnification). On each slide, a total of at least 100 cells were calculated.

[7] = test system: LPS-induced acute lung injury in C57BL/6J mice; assay: LPS-induced acute lung injury: open field test; assay type: in vivo; details: 6e 30 mg/kg i.p., within 24 h after LPS; for motor activity in the open field test, in words: dexamethasone 5 mg/kg
Experimental: as §4
The animals were placed in the center of a round open field with an arena of 44 cm diameter and 32 cm wall height under 300 lux lighting. During 5 min of observation, horizontal motor activity, vertical motor activity, time spent in the central part, the number of exits to the central part, and exploratory activity parameters were recorded. Body temperature was determined rectally.

| pIC50 [1] | pIC50 [2] | Structure (SMILES) | CC50 at 24 h (MTT cytotoxicity study) [µM] | also measured |
| --- | --- | --- | --- | --- |
| 4.14 |  | CCOC(=O)C1=C(C)NC(C)=NC1c1ccc(N)cc1 (stereo not drawn) [Compound 10b] | 178 |  |
| 6.43 | 4.83 | Nc1ccc(-c2cc(-c3ccc(F)cc3)n3ncnc3n2)cc1 [Compound 7a] | > 100 |  |
| 3.49 |  | CCOC(=O)C1=C(C)NC(C)=NC1c1cccc(N)c1 (stereo not drawn) [Compound 10a] | > 100 |  |
| 4.34 | 4.50 | Nc1ccc(-c2cc(-c3cccc(N)c3)n3ncnc3n2)cc1 [Compound 7b] | > 100 |  |
| 6.92 | < 4.00 | CSc1nc(-c2ccc(N)cc2)cc(-c2ccc(N)cc2)n1 [Compound 6g] | > 100 |  |
|  |  | CCOC(=O)C1=C(C)Nc2ncnn2C1c1ccc(N)cc1 (stereo not drawn) [Compound 11b] | > 100 |  |
| 4.68 | 5.66 | Cc1nc(-c2ccccc2)cc(-c2ccc(N)cc2)n1 [Compound 6b] | 65.6 |  |
| 4.82 | 5.66 | Nc1ccc(-c2cc(-c3ccc(N)cc3)n3ncnc3n2)cc1 [Compound 7c] | 47.1 | cytotoxicity in the MTT test, in words (peritoneal macrophages): pronounced cytotoxicity; macrophage phagocytic activity (number of phagocytes), in words [3]: preserve macrophage phagocytic activity; phagocytic capacity (number of yeast cells per macrophage), in words [3]: significantly suppressed macrophage phagocytic capacity; decrease of the mean number of phagocytosed particles ([3]; vs DMSO): 63% |
|  |  | Cc1nc(-c2ccccc2)cc(-c2ccccc2N)n1 [Compound 6a] | > 100 | cytotoxicity in the MTT test, in words (peritoneal macrophages): pronounced cytotoxicity; macrophage phagocytic activity (number of phagocytes), in words [3]: preserve macrophage phagocytic activity; phagocytic capacity (number of yeast cells per macrophage), in words [3]: significantly suppressed macrophage phagocytic capacity; decrease of the mean number of phagocytosed particles ([3]; vs DMSO): 35% |
| 4.79 | 4.73 | Cc1nc(-c2ccc(N)cc2)cc(-c2ccc(N)cc2)n1 [Compound 6e] | > 100 | lung permeability index, in words ([4]; BAL to plasma protein ratio): preserving the vascular permeability at intact levels; markers of inflammation and lung damage (IL-6 in BAL and plasma, alveolar vessel permeability), in words ([4]; dexamethasone 5 mg/kg): normalized these markers of inflammation and lung damage; plasma IL-6 concentration, in words ([4]; dexamethasone 5 mg/kg): normalized it to intact levels; histological inflammatory lesions of the lung, in words ([5]; 6e 30 mg/kg i.p., H&E): limited inflammatory lesions; Mean Injury Score (semi-quantitative morphological score of lung tissue damage) [5]: 1.83; BAL: ratio of segmented neutrophils to monocytes, in words [6]: amelioration of this ratio; spleen lymphocytes (systemic immunosuppression), in words [6]: preserved normal content of spleen lymphocytes; exploratory behavior in the open field test, in words [7]: improved; motor activity in the open field test, in words [7]: increased the motor activity of mice but was inferior to dexamethasone activity; phagocytic capacity (number of yeast cells per macrophage), in words [3]: retains a nearly normal phagocytic capacity; decrease of the phagocytic index ([3]; vs DMSO): 32% |
| 4.63 | 5.60 | C[C@@H]1C[C@H]2[C@@H]3CCC4=CC(=O)C=C[C@]4(C)[C@@]3(F)[C@@H](O)C[C@]2(C)[C@@]1(O)C(=O)CO [Dexamethasone, reference compound] | 97.4 | plasma IL-6 concentration, in words ([4]; dexamethasone 5 mg/kg): normalized it to intact levels; Mean Injury Score (semi-quantitative morphological score of lung tissue damage) [5]: 1.33; blood: recruitment of segmented neutrophils at the expense of lymphocytes, in words [6]: corrected by dexamethasone; spleen lymphocytes (systemic immunosuppression), in words [6]: significantly decreased proliferation of spleen lymphocytes; motor activity in the open field test, in words [7]: corrected by dexamethasone; macrophage phagocytic activity (number of phagocytes), in words [3]: reducing both the number of phagocytes; phagocytic capacity (number of yeast cells per macrophage), in words [3]: reducing both the number of phagocytes and their phagocytic capacity |
| 6.43 | 4.46 | Cc1nc(-c2ccc(N)cc2)cc(-c2ccc(F)cc2)n1 [Compound 6c] | > 100 |  |
|  |  | Cc1nc(-c2ccc(N)cc2)cc(-c2cccc(N)c2)n1 [Compound 6d] | > 100 |  |
| 4.37 |  | Nc1ccc(-c2cc(-c3ccc(N)cc3)nc(N)n2)cc1 [Compound 6f] | 96.1 |  |
|  |  | CCOC(=O)C1=C(C)Nc2ncnn2C1c1cccc(N)c1 (stereo not drawn) [Compound 11a] | > 100 |  |

Source: paper PMC9863002, “Amino Derivatives of Diaryl Pyrimidines and Azolopyrimidines as Protective Agents against LPS-Induced Acute Lung Injury” (Molecules, 2023)
